Data as given in ChEMBL document CHEMBL1137623, “Synthesis and in-vitro biological activity of macrocyclic urea Chk1 inhibitors” (Bioorg Med Chem Lett, 2007).

Assays:
HeLa = assay: Antiproliferative activity against human HeLa cells by MTS assay; type: functional, cell-based
NCI-H1299 = assay: Cell cycle arrest in human NCI-H1299 cells assessed as accumulation at G2/M phase by FACS; type: functional, cell-based
[1] = target: T1, Serine/threonine-protein kinase Chk1 (Homo sapiens, UniProt O14757); assay: Inhibition of Chk1 enzyme by radiometric assay
T1 sequence (O14757 whole entry): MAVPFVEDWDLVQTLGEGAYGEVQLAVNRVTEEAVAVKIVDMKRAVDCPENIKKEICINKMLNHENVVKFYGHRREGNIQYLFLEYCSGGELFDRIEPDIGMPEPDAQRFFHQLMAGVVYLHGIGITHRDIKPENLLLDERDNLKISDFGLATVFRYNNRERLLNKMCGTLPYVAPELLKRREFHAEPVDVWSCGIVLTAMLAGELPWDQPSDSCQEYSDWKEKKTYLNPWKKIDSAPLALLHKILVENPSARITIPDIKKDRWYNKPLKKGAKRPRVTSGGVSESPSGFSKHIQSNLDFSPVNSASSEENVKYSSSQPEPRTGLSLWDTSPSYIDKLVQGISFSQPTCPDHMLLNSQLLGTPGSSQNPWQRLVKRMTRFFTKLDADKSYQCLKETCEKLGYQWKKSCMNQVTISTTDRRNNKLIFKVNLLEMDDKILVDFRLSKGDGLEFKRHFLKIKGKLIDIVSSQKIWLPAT

For `COc1ccc2c(c1)NC(=O)Nc1cnc(C#N)c(n1)OCC/C=C\CO2`, the EC50 (HeLa) was > 59300 nM, the EC50 (NCI-H1299) was > 10000 nM and the IC50 [1] was 37 nM.
In the case of `N#Cc1ncc2nc1OCCCCCOc1ccc(CCCO)cc1NC(=O)N2`, the EC50 (HeLa) is reported as > 59300 nM, the EC50 (NCI-H1299) is reported as > 10000 nM and the IC50 [1] is reported as 24 nM.
`N#Cc1ncc2nc1OCCCCCOc1ccc(OCCCCN3CCOCC3)cc1NC(=O)N2` was tested, and the IC50 [1] was 3 nM.
For `N#Cc1ncc2nc1OCCCCOc1ccc(OCCCCN3CCOCC3)cc1NC(=O)N2`, the EC50 (HeLa) was > 59300 nM and the IC50 [1] was 4 nM.
With `COc1ccc(NC(C)=O)cc1NC(=O)Nc1cnc(C#N)cn1` the IC50 [1] was 22 nM.
In the case of `N#Cc1ncc2nc1OCCCCCOc1ccc(OCCCCCN3CCOCC3)cc1NC(=O)N2`, the EC50 (HeLa) is reported as 8870 nM, the EC50 (NCI-H1299) is reported as > 10000 nM and the IC50 [1] is reported as 3 nM.
For `N#Cc1ncc2nc1OCC/C=C\COc1ccc(OCCCN3CCOCC3)cc1NC(=O)N2`, the EC50 (HeLa) was > 59300 nM, the EC50 (NCI-H1299) was > 10000 nM and the IC50 [1] was 5 nM.
In the case of `N#Cc1ncc2nc1OCCCCCOc1ccccc1NC(=O)N2`, the EC50 (HeLa) is reported as > 59300 nM, the EC50 (NCI-H1299) is reported as > 10000 nM and the IC50 [1] is reported as 16 nM.
With `N#Cc1ncc2nc1OCCCCOc1ccc(OCCCN3CCOCC3)cc1NC(=O)N2` the EC50 (HeLa) was > 59300 nM and the IC50 [1] was 2 nM.
With `N#Cc1ncc2nc1OCCCCCOc1ccc(OCCO)cc1NC(=O)N2` the EC50 (HeLa) was > 59300 nM, the EC50 (NCI-H1299) was > 10000 nM and the IC50 [1] was 11 nM.
In the case of `N#Cc1ncc2nc1OCCCCCOc1ccc(Cl)cc1NC(=O)N2`, the EC50 (HeLa) is reported as 57600 nM, the EC50 (NCI-H1299) is reported as > 10000 nM and the IC50 [1] is reported as 11 nM.
In the case of `CCOc1ccc2c(c1)NC(=O)Nc1cnc(C#N)c(n1)OCC/C=C\CO2`, the EC50 (HeLa) is reported as > 59300 nM, the EC50 (NCI-H1299) is reported as > 10000 nM and the IC50 [1] is reported as 19 nM.
For `N#Cc1ncc2nc1OCC/C=C\COc1ccc(CCOC3CCCCO3)cc1NC(=O)N2` (stereo not drawn), the EC50 (NCI-H1299) was > 10000 nM and the IC50 [1] was 108 nM.
In the case of `Cc1ccc2c(c1)NC(=O)Nc1cnc(C#N)c(n1)OCC/C=C\CO2`, the EC50 (HeLa) is reported as > 59300 nM, the EC50 (NCI-H1299) is reported as > 10000 nM and the IC50 [1] is reported as 15 nM.
For `N#Cc1ncc2nc1OCC/C=C\COc1ccc(OCCCCCN3CCOCC3)cc1NC(=O)N2`, the EC50 (HeLa) was 5270 nM, the EC50 (NCI-H1299) was > 10000 nM and the IC50 [1] was 5 nM.
For `CN(C)CCOc1ccc2c(c1)NC(=O)Nc1cnc(C#N)c(n1)OCC/C=C\CO2`, the EC50 (HeLa) was 30400 nM, the EC50 (NCI-H1299) was > 10000 nM and the IC50 [1] was 15 nM.
With `N#Cc1ncc2nc1OCCCCCOc1ccc(Br)cc1NC(=O)N2` the EC50 (HeLa) was 52800 nM, the EC50 (NCI-H1299) was > 10000 nM and the IC50 [1] was 12 nM.
`N#Cc1ncc2nc1OC/C=C\COc1ccc(Cl)cc1NC(=O)N2` was tested, and the EC50 (HeLa) was > 59300 nM, the EC50 (NCI-H1299) was > 10000 nM and the IC50 [1] was 5 nM.
With `N#Cc1ncc2nc1OCC/C=C\COc1ccc(O)cc1NC(=O)N2` the EC50 (HeLa) was > 59300 nM, the EC50 (NCI-H1299) was > 10000 nM and the IC50 [1] was 34 nM.
`CC(=O)Nc1ccc2c(c1)NC(=O)Nc1cnc(C#N)c(n1)OCC/C=C\CO2` was tested, and the EC50 (HeLa) was 39900 nM, the IC50 (NCI-H1299) was > 10000 nM and the IC50 [1] was 16 nM.
For `N#Cc1ncc2nc1OCC/C=C\COc1ccc(OCCO)cc1NC(=O)N2`, the EC50 (HeLa) was > 59300 nM, the EC50 (NCI-H1299) was > 10000 nM and the IC50 [1] was 13 nM.
With `N#Cc1ncc2nc1OCCCCOc1ccc(Cl)cc1NC(=O)N2` the EC50 (HeLa) was > 59300 nM and the EC50 (NCI-H1299) was > 10000 nM.
For `N#Cc1ncc2nc1OC/C=C\COc1ccc(OCCCN3CCOCC3)cc1NC(=O)N2`, the EC50 (HeLa) was > 59300 nM and the IC50 [1] was 4 nM.
For `N#Cc1ncc2nc1OCCCCCOc1ccc(CCO)cc1NC(=O)N2`, the EC50 (HeLa) was > 59300 nM, the EC50 (NCI-H1299) was > 10000 nM and the IC50 [1] was 39 nM.
With `N#Cc1ncc2nc1OCC/C=C\COc1ccc(CCO)cc1NC(=O)N2` the EC50 (NCI-H1299) was > 10000 nM and the IC50 [1] was 97 nM.
In the case of `N#Cc1ncc2nc1OCCCCCOc1ccc(OCCCN3CCOCC3)cc1NC(=O)N2`, the EC50 (HeLa) is reported as 4030 nM, the EC50 (NCI-H1299) is reported as > 10000 nM and the IC50 [1] is reported as 7 nM.
In the case of `N#Cc1ncc2nc1OCCCCOc1ccc(OCCCCCN3CCCOC3)cc1NC(=O)N2`, the EC50 (HeLa) is reported as > 59300 nM and the IC50 [1] is reported as 3 nM.
`N#Cc1ncc2nc1OCC/C=C\COc1ccccc1NC(=O)N2` was tested, and the EC50 (HeLa) was 40000 nM, the EC50 (NCI-H1299) was > 10000 nM and the IC50 [1] was 12 nM.
In the case of `CC(=O)Nc1ccc2c(c1)NC(=O)Nc1cnc(C#N)c(n1)OCCCCCO2`, the IC50 [1] is reported as 8 nM.
With `N#Cc1ncc2nc1OCC/C=C\COc1ccc(Cl)cc1NC(=O)N2` the EC50 (HeLa) was 11900 nM, the EC50 (NCI-H1299) was > 10000 nM and the IC50 [1] was 10 nM.
`N#Cc1ncc2nc1OCC/C=C\COc1ccc(CCCO)cc1NC(=O)N2` was tested, and the EC50 (HeLa) was > 59300 nM, the EC50 (NCI-H1299) was > 10000 nM and the IC50 [1] was 69 nM.
For `N#Cc1ncc2nc1OCC/C=C\COc1ccc(OCCOC3CCCCO3)cc1NC(=O)N2` (stereo not drawn), the EC50 (HeLa) was 30900 nM, the EC50 (NCI-H1299) was > 10000 nM and the IC50 [1] was 19 nM.
For `CC(C)(C)[Si](Oc1ccc2c(c1)NC(=O)Nc1cnc(C#N)c(n1)OCC/C=C\CO2)(c1ccccc1)c1ccccc1`, the IC50 [1] was > 10000 nM.
With `CCOc1ccc2c(c1)NC(=O)Nc1cnc(C#N)c(n1)OCCCCCO2` the EC50 (HeLa) was > 59300 nM, the EC50 (NCI-H1299) was > 10000 nM and the IC50 [1] was 55 nM.
`N#Cc1ncc2nc1OC/C=C\COc1ccc(OCCCCN3CCOCC3)cc1NC(=O)N2` was tested, and the EC50 (HeLa) was 7560 nM and the IC50 [1] was 4 nM.
In the case of `Cc1ccc2c(c1)NC(=O)Nc1cnc(C#N)c(n1)OCCCCCO2`, the IC50 [1] is reported as 8 nM.
With `N#Cc1ncc2nc1OC/C=C\COc1ccc(OCCCCCN3CCCOC3)cc1NC(=O)N2` the EC50 (HeLa) was > 59300 nM and the IC50 [1] was 2 nM.
In the case of `N#Cc1ncc2nc1OCC/C=C\COc1ccc(Br)cc1NC(=O)N2`, the EC50 (HeLa) is reported as 29400 nM, the EC50 (NCI-H1299) is reported as > 10000 nM and the IC50 [1] is reported as 12 nM.
With `N#Cc1ncc2nc1OCC/C=C\COc1ccc(CCCOC3CCCCO3)cc1NC(=O)N2` (stereo not drawn) the EC50 (HeLa) was > 59300 nM, the EC50 (NCI-H1299) was > 10000 nM and the IC50 [1] was 91 nM.
For `COc1ccc2c(c1)NC(=O)Nc1cnc(C#N)c(n1)OCCCCCO2`, the EC50 (HeLa) was > 59300 nM, the EC50 (NCI-H1299) was > 10000 nM and the IC50 [1] was 25 nM.
In the case of `CCOc1ccc(OCC)c(NC(=O)Nc2cnc(C#N)cn2)c1`, the IC50 [1] is reported as 31 nM.
`N#Cc1ncc2nc1OCC/C=C\COc1ccc(OCCCCN3CCOCC3)cc1NC(=O)N2` was tested, and the IC50 [1] was 6 nM.
